The species entered for one test is Ovis aries. Put plainly: Ratio of omeprazole IC50 to compound IC50 for sheep gastric H(+)/K(+) ATPase. Type of test: tissue-based. The settings on record: Stomach.
Take `COc1ccc(NC(=S)NC(CCC(=O)N2CCN(c3nsc4ccccc34)CC2)C(=O)N2CCN(c3nsc4ccccc34)CC2)cc1` (configuration not stated): the Ratio IC50 was determined as 15.

Test system in the next test: not listed separately
The experiment in a line: Inhibition of sheep gastric H(+)/K(+)-ATPase-mediated inorganic phosphate liberation after 15 mins by Fiske Subbarow method in presence of ATP.
Settings: not given; call rule not given here
In kind it is tissue-based, Ovis aries, Stomach.
As for `CC(C)(C)OC(=O)NC(CCC(=O)OCc1ccccc1)C(=O)O` (configuration not stated), the IC50 entry is recorded as “Not Active”.
The same measure, in the same setting: as for `CC(C)(C)OC(=O)NC(CCC(=O)O)C(=O)N1CCN(c2nsc3ccccc23)CC1` (configuration not stated), the entry is “Not Active”; as for `CC(C)(C)OC(=O)NC(CCC(=O)N1CCN(c2nsc3ccccc23)CC1)C(=O)N1CCN(c2nsc3ccccc23)CC1` (configuration not stated), “Not Active”.
For the compound `CC(C)(C)OC(=O)NC(CCC(=O)OCc1ccccc1)C(=O)N1CCN(c2nsc3ccccc23)CC1` (configuration not stated), the IC50 result is listed as “Not Active”.

The same test, now with this note: read-out: IC50.
On to `COc1ccc(NC(=S)NC(CCC(=O)N2CCN(c3nsc4ccccc34)CC2)C(=O)N2CCN(c3nsc4ccccc34)CC2)cc1` (configuration not stated), for which the IC50 turned out to be 5.4 µM.
As for `O=C(Nc1ccc(Br)cc1)NC(CCC(=O)N1CCN(c2nsc3ccccc23)CC1)C(=O)N1CCN(c2nsc3ccccc23)CC1` (configuration not stated), the IC50 was found to be 46 µM.
Still for that read-out and setting: as for `O=C(CCC(NC(=S)Nc1ccccc1F)C(=O)N1CCN(c2nsc3ccccc23)CC1)N1CCN(c2nsc3ccccc23)CC1` (configuration not stated), the figure is 74 µM.
With `O=C(Nc1cccc(F)c1)NC(CCC(=O)N1CCN(c2nsc3ccccc23)CC1)C(=O)N1CCN(c2nsc3ccccc23)CC1` (configuration not stated), the IC50 turned out to be 78 µM.
On the same count and under the same terms, as for `O=C(CCC(NC(=S)Nc1cccc(Br)c1)C(=O)N1CCN(c2nsc3ccccc23)CC1)N1CCN(c2nsc3ccccc23)CC1` (configuration not stated), the figure is 48 µM.
The same measure, in the same setting: as for `O=C(Nc1ccc(F)cc1)NC(CCC(=O)N1CCN(c2nsc3ccccc23)CC1)C(=O)N1CCN(c2nsc3ccccc23)CC1` (configuration not stated), the figure is 72 µM; as for `O=C(CCC(NC(=S)Nc1ccc(F)cc1)C(=O)N1CCN(c2nsc3ccccc23)CC1)N1CCN(c2nsc3ccccc23)CC1` (configuration not stated), 70 µM; as for `COc1ccc2[nH]c([S+]([O-])Cc3ncc(C)c(OC)c3C)nc2c1` (configuration not stated) [OMEPRAZOLE], 84 µM.
On the same count and under the same terms, under `O=C(CCC(NC(=S)Nc1cccc(Cl)c1)C(=O)N1CCN(c2nsc3ccccc23)CC1)N1CCN(c2nsc3ccccc23)CC1` (configuration not stated) stands 60 µM.
Consider `O=C(Nc1ccccc1)NC(CCC(=O)N1CCN(c2nsc3ccccc23)CC1)C(=O)N1CCN(c2nsc3ccccc23)CC1` (configuration not stated), for which the IC50 came out at 94 µM.
Take `COc1ccc(NC(=O)NC(CCC(=O)N2CCN(c3nsc4ccccc34)CC2)C(=O)N2CCN(c3nsc4ccccc34)CC2)cc1` (configuration not stated): the IC50 came to 6.2 µM.
Same read-out and setting: under `O=C(Nc1ccc(Cl)cc1)NC(CCC(=O)N1CCN(c2nsc3ccccc23)CC1)C(=O)N1CCN(c2nsc3ccccc23)CC1` (configuration not stated) stands 52 µM; under `O=C(Nc1ccccc1F)NC(CCC(=O)N1CCN(c2nsc3ccccc23)CC1)C(=O)N1CCN(c2nsc3ccccc23)CC1` (configuration not stated), 80 µM.
Still for that read-out and setting: as for `COc1ccccc1NC(=S)NC(CCC(=O)N1CCN(c2nsc3ccccc23)CC1)C(=O)N1CCN(c2nsc3ccccc23)CC1` (configuration not stated), the figure is 17 µM; as for `O=C(CCC(NC(=S)Nc1ccccc1Br)C(=O)N1CCN(c2nsc3ccccc23)CC1)N1CCN(c2nsc3ccccc23)CC1` (configuration not stated), 44 µM; as for `O=C(Nc1cccc(Cl)c1)NC(CCC(=O)N1CCN(c2nsc3ccccc23)CC1)C(=O)N1CCN(c2nsc3ccccc23)CC1` (configuration not stated), 56 µM.
Same read-out and setting: under `O=C(CCC(NC(=S)Nc1ccccc1)C(=O)N1CCN(c2nsc3ccccc23)CC1)N1CCN(c2nsc3ccccc23)CC1` (configuration not stated) stands 90 µM; under `COc1ccccc1NC(=O)NC(CCC(=O)N1CCN(c2nsc3ccccc23)CC1)C(=O)N1CCN(c2nsc3ccccc23)CC1` (configuration not stated), 19 µM.
Consider `O=C(Nc1cccc(Br)c1)NC(CCC(=O)N1CCN(c2nsc3ccccc23)CC1)C(=O)N1CCN(c2nsc3ccccc23)CC1` (configuration not stated), for which the IC50 was 50 µM.
`COc1cccc(NC(=S)NC(CCC(=O)N2CCN(c3nsc4ccccc34)CC2)C(=O)N2CCN(c3nsc4ccccc34)CC2)c1` (configuration not stated): the IC50 was determined as 10 µM.
Same read-out and setting: as for `O=C(CCC(NC(=S)Nc1ccc(Cl)cc1)C(=O)N1CCN(c2nsc3ccccc23)CC1)N1CCN(c2nsc3ccccc23)CC1` (configuration not stated), the figure is 54 µM; as for `COc1cccc(NC(=O)NC(CCC(=O)N2CCN(c3nsc4ccccc34)CC2)C(=O)N2CCN(c3nsc4ccccc34)CC2)c1` (configuration not stated), 11 µM.

The values are drawn from ChEMBL document CHEMBL2401633, “tert-Butyl 1,5-bis(4-(benzo[d]isothiazol-3-yl)piperazin-1-yl)-1,5-dioxopentan-2-ylcarbamate urea/thiourea derivatives as potent H+/K(+)-ATPase inhibitors” (Bioorg Med Chem Lett, 2013).
